Data on 19 molecules can be found in patent US20230067159A1, “ROR-GAMMA-T INHIBITOR, PREPARATION METHOD THEREOF AND USE THEREOF” (priority 2020, published 2023).

As a reminder, the IC50 is the point on the concentration scale where inhibition reaches its midpoint. For orientation: CLint scaled means the rate of metabolic loss divided by the concentration. Read a low CLint scaled as greater metabolic stability. In general, bioavailability refers to the share of a dose that reaches the circulation, judged against a reference dose that is usually intravenous. One may read the AUC(0-t) as the area under the concentration-time curve up to a stated or last time point. Read a low AUC(0-t) as low exposure. For orientation: Cmax means the peak of the concentration-time curve.

The target of series [1] is T1, RORγ (Homo sapiens, UniProt P51449).
T1 construct: The concentration of B-RORγ LBD was 40 nM
T1 sequence (P51449 269-508 limits assumed): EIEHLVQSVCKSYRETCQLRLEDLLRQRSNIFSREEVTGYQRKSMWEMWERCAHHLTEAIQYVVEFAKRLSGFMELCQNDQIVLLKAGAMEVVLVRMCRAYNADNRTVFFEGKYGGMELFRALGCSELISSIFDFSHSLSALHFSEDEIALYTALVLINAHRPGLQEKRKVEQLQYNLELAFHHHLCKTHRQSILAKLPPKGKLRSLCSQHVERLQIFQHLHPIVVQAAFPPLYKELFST
Briefly: Fluorescence resonance energy transfer (FRET) test, B-RORγ LBD / Biotin-SRC1. Format: biochemical. The procedure: Biological Example 1 Fluorescence Resonance Energy Transfer (FRET) Test
(1) Preparation of RORγ Test Buffer and 10 mM of DTT
100 mL of 1× Basic test buffer (HEPES (pH 7.4), 100 mM NaCl, 0.01% BSA) was prepared, and 154.25 mg of DTT was added. The mixture was well mixed.
(2) Preparation of Compound with Gradient Concentration
a. Standard compound was prepared: Standard compound was diluted with 100% DMSO to 2.5 mM, then diluted 3-fold with 11 serial dilutions to a final concentration of […];
b. Test compound was prepared referring to the standard compound.
(3) Preparation of 1× Protein Solution Mixture
a. Preparation of the desired amount of 2× B-RORγ LBD/SA-APC protein mixture: The concentration of B-RORγ LBD was 40 nM, and the concentration of SA-APC was 20 nM. They were mixed by gently inversion, and incubated at room temperature for 15 minutes. Then 400 nM of biotin was added. The mixture was mixed by gently inversion, and incubated at room temperature for 10 minutes;
b. Preparation of the desired amount of 2× Biotin-SRC1/SA-eu protein mixture: The concentration of Bioin-SRC1 was 40 nM, and the concentration of SA-eu was 20 nM. They were mixed by gently inversion, and incubated at room temperature for 15 minutes. Then 200 nM of biotin was added. The mixture was mixed by gently inversion, and incubated at room temperature for 10 minutes;
c. The protein mixtures prepared in step a and step b were mixed at a ratio of 1:1, and incubated at room temperature for 5 minutes;
d. 25 μL of the mixture from step c was added to the 384-well plate containing the test compound;
e. The mixture was centrifuged at 1000 rpm for one minute;
f. The mixture was incubated for 1 hour at room temperature.
(4) Data Collection and Calculation
After incubation at room temperature for 1 hour, the fluorescence values at 665 nm and 615 nm were measured with an EnVision plate reader, and the inhibition rate was calculated.
Inhibition rate %)=[(X−Min)/(Max−Min)]×100%
X is the fluorescence value ratio of “665/615” of the test compound; Min is the average value of “665/615” of the DMSO blank control; Max is the average value of “665/615” of the 10 μM SRC.

Series [2] in a line: Stability in human liver microsomes. Type of series: in vitro ADME. The conditions noted are these: pH 7.4; for half-life at 1.5 μM: human liver microsomes 0.5 mg protein/mL, compound 1.5 μM, NADPH, 37° C., read-out: Half-life t1/2; for CLint scaled at 1.5 μM: human liver microsomes, inferred in vivo intrinsic hepatic clearance rate. Here is the method: (§1) Biological Example 4 Stability of the Compounds of the Present Invention in Human and Rat Liver Microsomes
(§2) Human or rat liver microsomes were incubated in double wells in polypropylene tubes. A typical incubation mixture included human or rat liver microsomes (final concentration: 0.5 mg protein/mL), target compound (final concentration: 1.5 μM), and K-phosphate buffered solution (containing […] EDTA, 100 mM, pH=7.4) in a total volume of 30 μL. Compounds were dissolved in DMSO and diluted with K-phosphate buffered solution to give a final working solution concentration of 30 μM. After 10 min of pre-incubation, 25 μL of test compound or positive control solution was transferred to the microsomal solution. The mixture was mixed well and 30 μL of the mixture was immediately pipetted, ice-cold acetonitrile was added, then 15 μL of NADPH was added as T0. 15 μL of NADPH (final concentration: 2 mM) was added to 30 μL of the mixture for the enzymatic reaction, and the entire experiment was carried out in an incubation tube at 37° C. At various time points (0, 20 and 60 min), the reaction was stopped by adding 150 μL of acetonitrile (with internal standard). The protein was removed by centrifugation at 4000 rpm for 10 min, and the supernatant was collected and analyzed by LC-MS/MS.
(§3) For each reaction, the concentration of compound in the incubation of human or rat liver microsomes was plotted (expressed as a percentage) as a percentage relative to the zero time point to infer in vitro metabolic half-life and in vivo intrinsic hepatic clearance rate.
On the technique in general: Microsomes from liver hold many membrane-bound enzymes, among them those of drug oxidation.

Series [3] is described as follows: Pharmacokinetic evaluation I in ICR mice. Format: in vivo. Particulars: mouse, plasma, po; for bioavailability: p.o. 5 mg/kg, i.v. 1 mg/kg, read-out: Oral bioavailability (F); for AUC(0-t) / Cmax / half-life: 5 mg/kg. The procedure: Biological Example 2 Pharmacokinetic Evaluation I
ICR mice were weighed after an overnight fast for 15 h, and then randomly divided into groups according to body weight. The test compounds were formulated in a vehicle of 10% DMSO 10% kolliphor HS15^+ 80% Saline. For the test group administered intravenously (indicated by i.v.), the test animals were administered a dose of 1 mg/kg; for the test group administered by oral administration (indicated by p.o.), the test animals were administered a dose of 5 mg/kg. Then, at time points 0, 0.083 (intravenous injection group only), 0.25, 0.5, 1.0, 2.0, 5.0, 7.0 and 24 h, venous blood (approximately 0.2 mL) was collected and placed in an EDTAK2 anticoagulation tube, then centrifuged at 11,000 rpm for 2 min. Plasma was collected and stored at −20° C. or −70° C. until LC/MS/MS analysis. The drug concentration in plasma was measured at each time point, and the pharmacokinetic parameters were calculated according to the drug concentration-time curve.

Series [4] in a line: Stability in rat liver microsomes. Particulars: pH 7.4; for half-life at 1.5 μM: rat liver microsomes 0.5 mg protein/mL, compound 1.5 μM, NADPH, 37° C., read-out: Half-life t1/2; for CLint scaled at 1.5 μM: rat liver microsomes, inferred in vivo intrinsic hepatic clearance rate. Type of series: in vitro ADME. Here is the method: as §1, §2, §3

Molecule `CCS(=O)(=O)c1ccc([C@H](CO)NC(=O)c2ccc(N3C[C@@H](Oc4ccc(C(F)(F)F)cc4)C[C@H]3COC(F)(F)F)cc2)cc1` [Example 48, N—((R)-1-(4-(ethylsulfonyl)phenyl)-2-hydroxyethyl)-4-((2S,4S)-2-((trifluoromethoxy)methyl)-4-(4-(trifluoromethyl)phenoxy)pyrrolidin-1-yl)benzamide] showed an IC50 in series [1] of 0.0064 µM. Moreover, in series [2], the half-life at 1.5 μM is 10 h and the CLint scaled at 1.5 μM stood at 0.174 L/h/kg. Further, in series [3], the bioavailability amounted to 50%, the AUC(0-t) is 20.9 µM·h, the Cmax was determined as 1.7 µM and the half-life was 11.4 h.

In the case of `CCS(=O)(=O)c1ccc([C@H](CO)NC(=O)c2ccc(N3C[C@@H](Oc4ccc(C(F)(F)F)cc4)C[C@H]3COC(F)F)c(OC)c2)cc1` [Example 89], half-maximal inhibition in series [1] (IC50) required 0.026 µM.

`CCS(=O)(=O)c1ccc([C@H](CO)NC(=O)c2ccc(N3C[C@@H](Oc4ccc(C(F)(F)F)cc4)C[C@H]3COC(F)F)cc2OC)cc1` [Example 90] returned an IC50 in series [1] of 0.03 µM. For `CCS(=O)(=O)c1ccc([C@H](CCO)NC(=O)c2ccc(N3C[C@@H](Oc4ccc(C(F)(F)F)cc4)C[C@H]3COC(F)F)cc2)cc1` [Example 91], in series [2], the half-life at 1.5 μM was 6.93 h and the CLint scaled at 1.5 μM came to 0.252 L/h/kg. In series [4], the half-life at 1.5 μM came out at 2.37 h and the CLint scaled at 1.5 μM was found to be 2.28 L/h/kg. Moreover, in series [3], the bioavailability was found to be 42%, the AUC(0-t) worked out at 21 µM·h, the peak level (Cmax) was 1.9 µM and the half-life is 7.6 h. As for `CCS(=O)(=O)c1ccc([C@H](CO)NC(=O)c2ccc(N3C[C@@H](Oc4ccc(C(F)(F)F)cc4)C[C@H]3COC(F)(F)F)nc2)cc1` [Example 94, N—((R)-1-(4-(ethylsulfonyl)phenyl)-2-hydroxyethyl)-6-((2S,4S)-2-((trifluoromethoxy)methyl)-4-(4-(trifluoromethyl)phenoxy)pyrrolidin-1-yl)nicotinamide], the IC50 in series [1] was determined as 0.008 µM. Molecule `CCS(=O)(=O)c1ccc([C@H](CO)NC(=O)c2cnc(N3C[C@H](Oc4ccc(C(F)(F)F)cc4)C[C@H]3COC(F)(F)F)nc2)cc1` [Example 95, N—((R)-1-(4-(ethylsulfonyl)phenyl)-2-hydroxyethyl)-2-((2S,4R)-2-((trifluoromethoxy)methyl)-4-(4-(trifluoromethyl)phenoxy)pyrrolidin-1-yl)pyrimidine-5-carboxamide] showed an IC50 in series [1] of 0.045 µM. Same read-out and setting: in the case of `CCS(=O)(=O)c1ccc([C@H](CO)NC(=O)c2ccc(N3C[C@@H](Oc4ccc(C(F)(F)F)cc4)C[C@H]3COC(F)(F)F)cc2C#N)cc1` [Example 96, 2-cyano-N—((R)-1-(4-(ethylsulfonyl)phenyl)-2-hydroxyethyl)-4-((2S,4S)-2-((trifluoromethoxy)methyl)-4-(4-(trifluoromethyl)phenoxy)pyrrolidin-1-yl)benzamide] it was 0.064 µM; in that of `CCS(=O)(=O)c1ccc([C@@H](CO)NC(=O)c2ccc(N3C[C@@H](Oc4ccc(C(F)(F)F)cc4)C[C@H]3COC(F)F)cc2)cc1` [Example 98], 0.017 µM.

Molecule `CCS(=O)(=O)c1ccc(CNC(=O)c2ccc(N3C[C@@H](Oc4ccc(OC(F)(F)F)cn4)C[C@H]3COC(F)F)cc2)cc1` [Example 107] came in with a half-inhibitory concentration (IC50) in series [1] of 0.078 µM. This IC50 lies about 4.6-fold higher than the previous one. Molecule `CCS(=O)(=O)c1ccc([C@H](CCO)NC(=O)c2ccc(N3C[C@@H](Oc4ccc(OC(F)(F)F)cn4)C[C@H]3COC(F)F)cc2)cc1` [Example 108] had an IC50 in series [1] of 0.006 µM. This IC50 is about 13-fold lower than that of the molecule before. `[2H]C([2H])([2H])OC[C@@H]1C[C@H](Oc2ccc(C(F)(F)F)cc2)CN1c1ccc(C(=O)NCc2ccc(S(=O)(=O)CC)cc2)cc1` [Example 109, N-(4-(ethylsulfonyl)benzyl)-4-((2S,4S)-2-(3,3,3-d3-methoxymethyl)-4-(4-(trifluoromethyl)phenoxy)pyrrolidin-1-yl)benzamide]: the IC50 in series [1] is 0.0064 µM. This IC50 and that of the molecule before are within 1.5-fold of each other. In turn, `CCS(=O)(=O)c1ccc(CNC(=O)c2ccc(N3C[C@@H](Oc4ccc(OC(F)(F)F)cn4)C[C@H]3COC(F)F)nc2)cc1` [Example 110] registered a half-inhibitory concentration (IC50) in series [1] of 0.011 µM. This IC50 lies about 1.7-fold higher than the previous one.

Consider `CCS(=O)(=O)c1ccc(CNC(=O)c2cnc(N3C[C@@H](Oc4ccc(OC(F)(F)F)cn4)C[C@H]3COC(F)F)c(F)c2)cc1` [Example 111], for which it took 0.005 µM to reach half-maximal inhibition in series [1] (IC50). `CCS(=O)(=O)c1ccc(CNC(=O)c2ccc(N3C[C@@H](Oc4ccc(OC(F)(F)F)cn4)C[C@H]3COC(F)F)cc2)nc1` [Example 112]: the IC50 in series [1] is 0.008 µM. Still for that read-out and setting: in the case of `CCS(=O)(=O)c1ccc(CNC(=O)c2cnc(N3C[C@@H](Oc4ccc(Cl)cn4)C[C@H]3COC(F)F)c(F)c2)nc1` [Example 113, 6-((2S,4S)-4-((5-chloropyridin-2-yl)oxy)-2-((difluoromethoxy)methyl)pyrrolidin-1-yl)-N-((5-(ethylsulfonyl)pyridin-2-yl)methyl)-5-fluoronicotinamide] it was 0.0062 µM; in that of `CCS(=O)(=O)c1ccc([C@H](CCO)NC(=O)c2ccc(N3C[C@H](Oc4ccc(OC(F)(F)F)cc4)C[C@H]3COC(F)F)nc2)cc1` [Example 115], 0.013 µM; in that of `CCS(=O)(=O)c1ccc([C@H](CCO)NC(=O)c2cnc(N3C[C@@H](Oc4ccc(OC(F)(F)F)cc4)C[C@H]3COC(F)F)c(F)c2)cc1` [Example 116], 0.01 µM. In the case of `CCS(=O)(=O)c1ccc([C@H](CCO)NC(=O)c2ccc(N3C[C@@H](Oc4ccc(OC(F)(F)F)cc4)C[C@H]3CF)cc2)cc1` [Example 117, N—((S)-1-(4-(ethylsulfonyl)phenyl)-3-hydroxypropyl)-4-((2S,4S)-2-(fluoromethyl)-4-(4-(trifluoromethoxy)phenoxy)pyrrolidin-1-yl)benzamide], the IC50 in series [1] came out at 0.014 µM. In series [4], the half-life at 1.5 μM was found to be 6.12 h and the CLint scaled at 1.5 μM turned out to be 0.228 L/h/kg. Regarding `CCS(=O)(=O)c1ccc([C@H](CCOP(=O)(O)O)NC(=O)c2ccc(N3C[C@@H](Oc4ccc(OC(F)(F)F)cc4)C[C@H]3COC(F)F)cc2)cc1` [Example 125, sodium (S)-3-(4-((2S,4S)-2-((difluoromethoxy)methyl)-4-(4-(trifluoromethoxy)phenoxy)pyrrolidin-1-yl)benzamino)-3-(4-(ethylsulfonyl)phenyl)propyl phosphate], the IC50 in series [1] is 0.14 µM.
